# In ChEMBL document CHEMBL3616373, “Identification of N-sulfonyl-tetrahydroquinolines as RORc inverse agonists” (Bioorg Med Chem Lett, 2015):
# Key:
# MDCK = assay: Efflux ratio of apparent permeability across apical to basolateral side over basolateral to apical side in MDCK cells at 100 uM after 60 mins by HPLC analysis; type: ADME, cell-based, Canis lupus familiaris; conditions: dog, 1 h
# HEK293 = assay: Selectivity ratio of EC50 for GAL4-fused human LXRalpha expressed in HEK293 cells to EC50 for GAL4-fused human RORc expressed in HEK293 cells; type: cell-based
# [1] = target: T1, Nuclear receptor ROR-gamma (Homo sapiens, UniProt P51449); assay: Inverse agonist activity at N-terminal 6xHis-tagged human RORc ligand binding domain (241 to 486) expressed in bacterial expression system assessed as inhibition of SRC1 co-activator peptide recruitment after 3 hrs by TR-FRET analysis; type: functional
# T1 sequence (P51449 whole entry): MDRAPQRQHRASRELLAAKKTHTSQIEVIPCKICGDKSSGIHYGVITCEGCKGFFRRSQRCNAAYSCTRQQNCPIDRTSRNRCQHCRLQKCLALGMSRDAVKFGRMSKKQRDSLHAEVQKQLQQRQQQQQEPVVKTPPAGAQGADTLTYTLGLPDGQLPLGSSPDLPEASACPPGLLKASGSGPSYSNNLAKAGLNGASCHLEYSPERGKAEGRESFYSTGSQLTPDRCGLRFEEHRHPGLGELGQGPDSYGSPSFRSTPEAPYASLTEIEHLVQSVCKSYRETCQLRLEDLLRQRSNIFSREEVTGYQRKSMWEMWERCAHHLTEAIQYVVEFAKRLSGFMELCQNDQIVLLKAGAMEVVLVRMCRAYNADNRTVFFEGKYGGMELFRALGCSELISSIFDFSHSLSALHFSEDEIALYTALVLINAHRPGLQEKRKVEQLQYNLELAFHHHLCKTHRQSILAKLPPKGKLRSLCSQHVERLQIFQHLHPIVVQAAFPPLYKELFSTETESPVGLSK
compound,measurement,setting,value
O=C(Nc1ccc2c(c1)N(S(=O)(=O)c1ccc(F)cc1)CC2)c1c(F)cccc1F,Ratio,MDCK,< 2
same,Ratio EC50,HEK293,15
same,EC50,[1],86 nM
